Experimental data: publication PMC12475274, “Harnessing indole scaffolds to identify small-molecule IRE1α inhibitors modulating XBP1 mRNA splicing” (Nature Communications, 2025)
Where “and” joins values, the source holds several entries; their conditions need not be identical. Equal entries are not always repeated.

How the values were obtained:
IRE1α = conditions: Fig. 1b; read-out: IC50 of reported IRE1α inhibitor; cited from earlier work
[1] = system: XBP1 mRNA splicing in A549 cells; assay: RT-qPCR of ER stress-induced XBP1 mRNA splicing, A549; type: cell-based, human; conditions: Fig. 7c, 0.5μg/mL Tm, individual replicates
Method: (§1) A549 cells, HCT 116 cells, and HT-29 cells were collected and seeded in 6-well plates at a density of 5 × 10^5 cells per well and cultured overnight to attach, then treated with compound or DMSO for 2 h, then 0.5 μg/mL final concentration of tunicamycin (Tm, MP Biomedi, 0215002805) were added to induce the ER stress for 2 h. After treatment, total RNA was purified using an RNeasy mini kit (Qiagen, 74106). 500 ng of total RNA was used for reverse transcription using the High-Capacity cDNA Reverse Transcription Kits (Thermo Fisher, 4368814). cDNA was diluted 1: 5 using RNase-free water, and 1 μL CDNA was used for each qPCR reaction. The qPCR was performed using PowerUp™ SYBR™ Green Master Mix (Thermo Fisher, A25742) with 10 µL reaction volume using Bio-Rad CFX96 Real-Time PCR Detection System following the standard cycling mode (primer Tm ≥ 60 °C) on the manufacturer’s protocol. Data was analyzed using the 2^- ΔΔCt method. The primers used are listed in Supplementary Table S3. The inhibition % was calculated by using the equation: inhibition% = 100× (normalized Tm control - normalized of the sample)/(normalized Tm control - normalized DMSO control). Tm control: Cells treated with tunicamycin; DMSO control: Cells treated with DMSO only.

[2] = system: XBP1 mRNA splicing in HT-29 cells; assay: RT-qPCR of ER stress-induced XBP1 mRNA splicing, HT-29; type: cell-based, human; conditions: HT-29
Method: as §1

[3] = system: XBP1 mRNA splicing in HCT 116 cells; assay: RT-qPCR of ER stress-induced XBP1 mRNA splicing, HCT 116; type: cell-based, human; conditions: HCT116
Method: as §1

[4] = system: IRE1α transcription level in HT-29 cells; assay: RT-qPCR of IRE1α transcription level, HT-29; type: cell-based, human; conditions: HT-29
Method: as §1

[5] = system: IRE1α transcription level in A549 cells; assay: RT-qPCR of IRE1α transcription level, A549; type: cell-based, human; conditions: A549
Method: as §1

[6] = system: IRE1α transcription level in HCT 116 cells; assay: RT-qPCR of IRE1α transcription level, HCT 116; type: cell-based, human; conditions: HCT116
Method: as §1

[7] = biological target: T1, dephosphorylated IRE1α (547–977) (Homo sapiens, UniProt O75460); assay: FRET-based IRE1α RNase activity assay, dephosphorylated IRE1α; type: biochemical
T1 construct: Human IRE1α kinase and RNase domain (residues 547–977) was subcloned into pLIB plasmid; His tag (with TEV cleavage site) (N, cleaved yes); made in house; host or cells: Sf9 insect cells, baculovirus (Bac-to-Bac)
T1 sequence (O75460 547-977): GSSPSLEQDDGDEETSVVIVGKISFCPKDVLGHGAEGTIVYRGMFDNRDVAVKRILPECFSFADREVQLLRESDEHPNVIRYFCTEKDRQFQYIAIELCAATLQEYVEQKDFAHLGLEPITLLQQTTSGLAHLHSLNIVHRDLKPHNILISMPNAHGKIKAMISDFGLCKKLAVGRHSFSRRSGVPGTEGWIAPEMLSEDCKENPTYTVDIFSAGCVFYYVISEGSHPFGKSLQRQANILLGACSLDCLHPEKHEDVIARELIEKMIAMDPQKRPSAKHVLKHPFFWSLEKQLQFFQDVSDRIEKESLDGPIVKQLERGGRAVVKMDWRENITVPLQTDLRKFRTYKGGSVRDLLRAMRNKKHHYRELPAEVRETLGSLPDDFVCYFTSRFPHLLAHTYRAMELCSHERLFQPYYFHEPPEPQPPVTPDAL
Summary of the method: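 Inhibition came from the linear-phase cleavage rate of 100 nM XBP1-sequence FAM/BHQ1 RNA, monitored at 485/535 nm over one hour and fitted to IC50. Enzyme: 40 nM unphosphorylated IRE1α kinase-RNase domain (547–977), exposed to compound for 30 min at room temperature before substrate, in HEPES pH 7.5 buffer.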

[8] = biological target: T2, p-IRE1α dimerization and oligomerization (Homo sapiens, UniProt O75460); assay: DSS cross-linking assay with mass photometry; conditions: 100 μM compound, DSS crosslinking
T2 construct: Human IRE1α kinase and RNase domain (residues 547–977) was subcloned into pLIB plasmid; His tag (with TEV cleavage site) (N, cleaved yes); made in house; host or cells: Sf9 insect cells, baculovirus (Bac-to-Bac)
T2 sequence (O75460 547-977): as above
Method: Phosphorylated IRE1α (p-IRE1α) and compounds were incubated 30 min at room temperature, with a final concentration of 2 μM p-IRE1α and 100 μM of the indicated compound, in a buffer containing 20 mM HEPES, pH 7.5, 50 mM KOAc, 1 mM MgOAc2, 1 mM DTT, 0.05% v/v TritonX-100, in a total reaction volume of 20 μL. After incubation, DSS (disuccinimidyl suberate, Thermo Fisher, A39267) was added to the reaction at a final concentration of 250 μM to induce crosslinking at room temperature for 1 h. Tris (pH 7.5) was added to a final concentration of 50 mM to stop the reaction. Samples were further measured with a mass photometry instrument (Refeyn Ltd). The PBS buffer was used for the mass photometry measurement. The instrument was calibrated with BSA and TG protein mixture in PBS. Samples were diluted to a protein concentration of 100 nM with buffer before measurement. Then, 18 μL PBS buffer was added to the center of the gasket on the coverslips to check and find the focus. Afterward, 2 μL of the diluted sample was added, mixed, and measured. Data were analyzed using Discover MP software, for each sample, results from 3 individual measurements were merged.

[9] = biological target: T3, phosphorylated IRE1α (p-IRE1α) (Homo sapiens, UniProt O75460); assay: FRET-based IRE1α RNase activity assay, phosphorylated IRE1α; type: biochemical
T3 construct: Human IRE1α kinase and RNase domain (residues 547–977) was subcloned into pLIB plasmid; His tag (with TEV cleavage site) (N, cleaved yes); made in house; host or cells: Sf9 insect cells, baculovirus (Bac-to-Bac)
T3 sequence (O75460 547-977): as above
Summary of the method: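 Cleavage of a dual-labeled XBP1 RNA (200 nM) was followed kinetically over 1 h at room temperature at 485/535 nm, with initial slopes giving percent inhibition and IC50. Enzyme was 4 nM phosphorylated human IRE1α 547–977 from insect cells, incubated with compound for 30 min before substrate; buffer 20 mM HEPES pH 7.5, KOAc, MgOAc2, DTT, Triton X-100.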

Cc1cc(=O)oc2c(C=O)c(O)ccc12 [Compound 4μ8c]
IC50 (IRE1α): 0.076 µM

CN1CCC(CNc2cc(Cl)nn3c(-c4cc5nc(Nc6ccccc6)[nH]c5cc4F)cnc23)CC1 [Compound 31]
IC50 (IRE1α): 0.08 µM

Cc1ccc(C)c(NC(=O)NC(C)CCc2ccc(O)cc2)c1 (stereo not drawn) [Compound Z4P]
IC50 (IRE1α): 3.14 µM

CCOC(=O)CCc1c(C)n(C(=O)c2ccccc2)c2ccc(Br)cc12 [IA105]
Relative XBP1s/Actin ([1]; 0.009 μM): 2.671 and 2.32 and 2.971 and 2.381
Relative XBP1s/Actin ([1]; 0.027 μM): 2.362 and 2.303 and 2.482 and 2.4563
Relative XBP1s/Actin ([1]; 0.082 μM): 2.039 and 2.057 and 2.192 and 2.023
Relative XBP1s/Actin ([1]; 0.247 μM): 1.808 and 1.675 and 1.769 and 1.486
Relative XBP1s/Actin ([1]; 0.741 μM): 1.216 and 1.256 and 1.279 and 1.145
Relative XBP1s/Actin ([1]; 2.22 μM): 1.073 and 0.792 and 1.044 and 0.8663
Relative XBP1s/Actin ([1]; 6.67 μM): 1.0995 and 1.154 and 1.208 and 1.113
Relative XBP1s/Actin ([1]; 20 μM): 1.054 and 1.019 and 1.028 and 0.9077
Relative XBP1s/Actin ([2]; 0.003 μM): 11.684 and 10.815 and 12.821 and 10.854
Relative XBP1s/Actin ([2]; 0.009 μM): 11.469 and 10.431 and 11.317 and 10.144
Relative XBP1s/Actin ([2]; 0.027 μM): 12.267 and 11.074 and 12.013 and 10.900
Relative XBP1s/Actin ([2]; 0.082 μM): 8.652 and 8.438 and 8.782 and 8.518
Relative XBP1s/Actin ([2]; 0.247 μM): 4.629 and 4.592 and 4.962 and 3.379
Relative XBP1s/Actin ([2]; 0.741 μM): 1.283 and 1.309 and 1.516 and 1.277
Relative XBP1s/Actin ([2]; 2.22 μM): 1.103 and 1.024 and 1.015 and 0.976
Relative XBP1s/Actin ([2]; 6.67 μM): 0.958 and 0.872 and 0.904 and 0.841
Relative XBP1s/Actin ([2]; 20 μM): 1.096 and 1.163 and 1.053 and 0.889
Relative XBP1s/Actin ([3]; 0.009 μM): 5.428 and 5.195 and 5.7981 and 4.548
Relative XBP1s/Actin ([3]; 0.027 μM): 5.989 and 4.76 and 5.372 and 4.813
Relative XBP1s/Actin ([3]; 0.082 μM): 5.025 and 4.655 and 4.826 and 4.338
Relative XBP1s/Actin ([3]; 0.247 μM): 4.351 and 4.263 and 4.713 and 3.571
Relative XBP1s/Actin ([3]; 0.741 μM): 2.654 and 2.493 and 2.725 and 2.232
Relative XBP1s/Actin ([3]; 2.22 μM): 1.206 and 0.9713 and 1.3073 and 1.15
Relative XBP1s/Actin ([3]; 6.67 μM): 1.256 and 1.21 and 1.297 and 1.076
Relative XBP1s/Actin ([3]; 20 μM): 1.065 and 0.9931 and 0.9536 and 0.8918
Relative IRE1α/Actin ([4]; 0.003 μM): 1.012 and 1.008 and 1.050 and 0.980
Relative IRE1α/Actin ([4]; 0.009 μM): 0.917 and 0.954 and 1.053 and 0.909
Relative IRE1α/Actin ([4]; 0.027 μM): 1.104 and 0.811 and 1.025 and 1.043
Relative IRE1α/Actin ([4]; 0.082 μM): 0.794 and 0.825 and 1.037 and 0.844
Relative IRE1α/Actin ([4]; 0.247 μM): 0.885 and 0.861 and 0.831 and 0.823
Relative IRE1α/Actin ([4]; 0.741 μM): 0.783 and 0.766 and 0.908 and 0.750
Relative IRE1α/Actin ([4]; 2.22 μM): 0.956 and 0.812 and 1.017 and 0.944
Relative IRE1α/Actin ([4]; 6.67 μM): 0.712 and 0.683 and 0.754 and 0.735
Relative IRE1α/Actin ([4]; 20 μM): 1.089 and 1.044 and 0.863 and 0.952
Relative IRE1α/Actin ([5]; 0.009 μM): 1.097 and 0.928 and 1.209 and 0.916
Relative IRE1α/Actin ([5]; 0.027 μM): 1.090 and 0.987 and 1.064 and 0.939
Relative IRE1α/Actin ([5]; 0.082 μM): 1.050 and 1.155 and 1.127 and 1.034
Relative IRE1α/Actin ([5]; 0.247 μM): 1.053 and 1.161 and 1.037 and 0.961
Relative IRE1α/Actin ([5]; 0.741 μM): 0.957 and 1.053 and 0.856 and 0.910
Relative IRE1α/Actin ([5]; 2.22 μM): 1.022 and 0.873 and 1.063 and 1.025
Relative IRE1α/Actin ([5]; 6.67 μM): 0.890 and 0.939 and 0.992 and 0.722
Relative IRE1α/Actin ([5]; 20 μM): 1.131 and 1.096 and 0.934 and 0.949
Relative IRE1α/Actin ([6]; 0.009 μM): 0.982 and 0.954 and 1.279 and 1.057
Relative IRE1α/Actin ([6]; 0.027 μM): 1.271 and 1.075 and 1.281 and 1.112
Relative IRE1α/Actin ([6]; 0.082 μM): 0.845 and 0.871 and 0.924 and 0.835
Relative IRE1α/Actin ([6]; 0.247 μM): 0.966 and 1.085 and 1.076 and 0.890
Relative IRE1α/Actin ([6]; 0.741 μM): 0.990 and 1.042 and 1.123 and 0.879
Relative IRE1α/Actin ([6]; 2.22 μM): 1.133 and 1.010 and 1.231 and 1.072
Relative IRE1α/Actin ([6]; 6.67 μM): 1.059 and 0.972 and 1.144 and 0.971
Relative IRE1α/Actin ([6]; 20 μM): 1.034 and 0.915 and 0.978 and 0.882

CC1(c2nc(-c3ccc(NC(=O)Nc4cccc(F)c4)c4ccccc34)c3c(N)nccn23)CC1 [KIRA7]
IC50 (IRE1α): 0.11 µM

COc1cc2c(C)c(CC(=O)N3CCOCC3)c(=O)oc2c(C=O)c1O [MCK8866]
IC50 (IRE1α): 0.39 µM

COCCOCCc1c(C)c2cc(OC)c(O)c(C=O)c2oc1=O [MCK9989]
IC50 (IRE1α): 0.29 µM

O=S(=O)(N=Cc1c(O)ccc2ccccc12)c1cccs1 [STF-083010]
IC50 (IRE1α): 25 µM

CN[C@@H]1C[C@H]2O[C@@](C)([C@@H]1OC)n1c3ccccc3c3c4c(c5c6ccccc6n2c5c31)C(=O)NC4 [STS, staurosporine, reference compound]
effect on IRE1α RNase activity in the FRET assay [7]: activated the RNase activity
effect on p-IRE1α dimerization/oligomerization [8]: did not affect the dimerization and oligomerization
effect on p-IRE1α RNase activity in the FRET assay [9]: did not affect the RNase activity
